Source: patent US20120100989A1, “3-Aryl-4-(2-thienylmethylene)isoxazol-5(4H)-ones as Fungicides” (Bayer CropScience AG, priority 2010, published 2012)

How the values were obtained:
Type in all cases: in vivo
[1] = tested on: Blumeria graminis f sp. tritici; test: Blumeria test (wheat)/protective; settings: protective, 1000 ppm active compound, evaluation 7 days after inoculation
Experimental: Blumeria Test (Wheat)/Protective [table] To produce a suitable preparation of active compound, 1 part by weight of active compound is mixed with the stated amounts of solvent and emulsifier, and the concentrate is diluted with water to the desired concentration. To test for protective activity, young plants are sprayed with the active compound preparation at the stated application rate. After the spray coating has dried on, the plants are dusted with spores of Blumeria graminis f sp. tritici.

[2] = tested on: Phytophthora infestans; settings: protective, 100 ppm active compound, evaluation 3 days after inoculation
[3] = tested on: Plasmopara viticola; test: Plasmopara test (grapevine)/protective; settings: protective, 100 ppm active compound, evaluation 6 days after inoculation
Experimental: Plasmopara Test (Grapevine)/Protective [table] To produce a suitable preparation of active compound, 1 part by weight of active compound is mixed with the stated amounts of solvent and emulsifier, and the concentrate is diluted with water to the desired concentration. To test for protective activity, young plants are sprayed with the active compound preparation at the stated application rate. After the spray coating has dried on, the plants are inoculated with an aqueous spore suspension of Plasmopara viticola and then remain in an incubation cabin at about 20° C. and 100% relative atmospheric humidity for 1 day. The plants are then placed in a greenhouse at about 21° C. and about 90% atmospheric humidity for 4 days. The plants are then moistened and placed in an incubation cabin for 1 day.

[4] = tested on: Venturia inaegualis; test: Venturia test (apple)/protective; settings: protective, 100 ppm active compound, evaluation 10 days after inoculation
Experimental: Venturia Test (Apple)/Protective [table] To produce a suitable preparation of active compound, 1 part by weight of active compound is mixed with the stated amounts of solvent and emulsifier, and the concentrate is diluted with water to the desired concentration. To test for protective activity, young plants are sprayed with the active compound preparation at the stated application rate. After the spray coating has dried on, the plants are inoculated with an aqueous conidia suspension of the apple scab pathogen Venturia inaegualis and then remain in an incubation cabin at about […] and 100% relative atmospheric humidity for 1 day. The plants are then placed in the greenhouse at about 21° C. and a relative atmospheric humidity of about 90%.

[5] = tested on: Alternaria solani; test: Alternaria test (tomato)/protective; settings: protective, 500 ppm active compound, evaluation 7 days after inoculation
Experimental: Alternaria Test (Tomato)/Protective [table] To produce a suitable preparation of active compound, 1 part by weight of active compound is mixed with the stated amounts of solvent and emulsifier, and the concentrate is diluted with water to the desired concentration. To test for protective activity, young tomato plants are sprayed with the active compound preparation at the stated application rate. 1 day after the treatment, the plants are inoculated with a spore suspension of Alternaria solani and then remain at 100% relative humidity and 20° C. for 24 h. The plants then remain at 96% relative atmospheric humidity and a temperature of 20° C.

Molecule `CC1=NOC(=O)/C1=C\c1ccco1` [A-8] has an efficacy [1] of 29%, an efficacy [2] of 0% and an efficacy [3] of 28%. For the same molecule, the efficacy [4] was 6% and the efficacy [5] was 0%.
